The target of experiment [1] is T1, human recombinant adrenergic α2A receptor (Homo sapiens, UniProt P08913).
T1 construct: expressed in transfected cells; host or cells: insect Sf9 cells
T1 sequence (P08913 1-465): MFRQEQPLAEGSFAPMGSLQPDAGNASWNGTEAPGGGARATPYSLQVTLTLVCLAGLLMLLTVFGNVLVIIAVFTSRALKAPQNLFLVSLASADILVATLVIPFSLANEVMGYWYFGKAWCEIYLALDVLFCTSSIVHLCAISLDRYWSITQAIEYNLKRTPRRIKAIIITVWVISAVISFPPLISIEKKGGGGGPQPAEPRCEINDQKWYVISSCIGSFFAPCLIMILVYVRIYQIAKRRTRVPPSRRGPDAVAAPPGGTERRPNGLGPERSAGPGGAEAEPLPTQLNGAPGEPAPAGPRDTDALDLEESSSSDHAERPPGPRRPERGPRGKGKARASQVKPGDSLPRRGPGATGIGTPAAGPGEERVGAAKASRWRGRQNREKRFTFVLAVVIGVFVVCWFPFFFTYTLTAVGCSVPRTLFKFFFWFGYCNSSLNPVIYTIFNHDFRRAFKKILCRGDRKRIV
The experiment is described as follows: Adrenergic alpha2A radioligand binding ([3H]MK-912). To be noted: compound at 1 μM; read-out: Adrenergic (1 μM) α2A, percent inhibition of specific binding. In a few lines:
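Membranes of Sf9 cells expressing human recombinant α2A receptor were incubated with compound and 1 nM [3H]MK-912 for 60 min at 25 °C in 50 mM Tris-HCl pH 7.4, 12.5 mM MgCl2, 2 mM EDTA. Nonspecific binding: 10 μM WB-4101.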

Experiment [2] addresses T2, human recombinant adrenergic α2B receptor (Homo sapiens, UniProt P18089).
T2 construct: expressed in transfected cells; host or cells: CHO-K1 cells
T2 sequence (P18089 1-450): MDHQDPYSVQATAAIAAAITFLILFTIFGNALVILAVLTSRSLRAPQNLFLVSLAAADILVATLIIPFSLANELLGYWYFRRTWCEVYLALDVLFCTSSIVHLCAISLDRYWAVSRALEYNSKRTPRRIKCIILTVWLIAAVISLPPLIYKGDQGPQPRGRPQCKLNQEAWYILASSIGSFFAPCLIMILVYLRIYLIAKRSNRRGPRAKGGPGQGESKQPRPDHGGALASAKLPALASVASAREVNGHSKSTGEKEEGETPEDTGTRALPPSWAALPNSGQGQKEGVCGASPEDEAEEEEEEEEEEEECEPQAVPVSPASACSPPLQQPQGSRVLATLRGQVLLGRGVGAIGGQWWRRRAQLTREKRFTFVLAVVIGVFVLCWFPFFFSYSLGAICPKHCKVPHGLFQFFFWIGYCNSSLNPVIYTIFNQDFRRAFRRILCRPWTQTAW
The experiment is described as follows: Adrenergic alpha2B radioligand binding ([3H]Rauwolscine). To be noted: compound at 1 μM; read-out: Adrenergic (1 μM) α2B, percent inhibition of specific binding. In a few lines: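 CHO-K1-expressed receptor in Tris-HCl pH 7.4 with MgCl2, EDTA, BSA, incubated 60 min at 25° C with 2.5 nM [3H]Rauwolscine; 10 μM prazosin defines non-specific binding.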

Experiment [3] deals with T3, human recombinant dopamine D2L receptor (Homo sapiens, UniProt P14416).
T3 construct: expressed in transfected cells; host or cells: CHO cells
Kind of experiment: Dopamine D2L radioligand binding ([3H]Spiperone). To be noted: compound at 1 μM; read-out: Dopamine (1 μM) D2L, percent inhibition of specific binding. In a few lines: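 Binding measured by filtration and counting, reported as % inhibition of specific [3H]spiperone binding (0.16 nM tracer; 10 μM haloperidol for nonspecific). Compounds tested at ≤1 μM in 1% DMSO for 120 min at 25° C against CHO-expressed human D2L in pH 7.4 Tris-HCl buffer.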

For experiment [4], the target named is T4, human recombinant serotonin (5-Hydroxytryptamine) 5-HT2A receptor (Homo sapiens, UniProt P28223).
T4 construct: expressed in transfected cells; host or cells: CHO-K1 cells
Kind of experiment: Serotonin 5-HT2A radioligand binding ([3H]Ketanserin). To be noted: compound at 1 μM; read-out: Serotonin (1 μM) 5-HT2A, percent inhibition of specific binding. In a few lines: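 Percent inhibition of specific [3H]ketanserin (0.5 nM) binding, filtration read-out, with compounds at ≤1 μM (1% DMSO vehicle). Receptor source: recombinant human 5-HT2A in CHO-K1 cells, 50 mM Tris-HCl pH 7.4, 60 min, 25 °C; 1 μM mianserin gives nonspecific binding.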

From patent publication US9481676B2, “Azepino[4,5-B]indoles and methods of use” (Medivation Technologies, Inc., priority 2008, dated 2016) come the findings set out here.

T4 sequence (P28223 whole entry): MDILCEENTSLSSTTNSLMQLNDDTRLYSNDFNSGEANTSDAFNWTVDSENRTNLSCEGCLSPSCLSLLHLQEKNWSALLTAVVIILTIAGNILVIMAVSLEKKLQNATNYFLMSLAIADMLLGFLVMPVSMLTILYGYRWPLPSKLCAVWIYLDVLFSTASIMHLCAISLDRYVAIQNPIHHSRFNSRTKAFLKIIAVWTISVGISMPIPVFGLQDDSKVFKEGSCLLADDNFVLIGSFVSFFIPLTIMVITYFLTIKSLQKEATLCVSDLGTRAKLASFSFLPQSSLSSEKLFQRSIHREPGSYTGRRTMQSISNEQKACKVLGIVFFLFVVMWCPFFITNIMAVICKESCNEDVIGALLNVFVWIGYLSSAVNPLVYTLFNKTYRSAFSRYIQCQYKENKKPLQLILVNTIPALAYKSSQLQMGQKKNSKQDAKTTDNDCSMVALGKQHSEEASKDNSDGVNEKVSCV
T3 sequence (P14416 whole entry): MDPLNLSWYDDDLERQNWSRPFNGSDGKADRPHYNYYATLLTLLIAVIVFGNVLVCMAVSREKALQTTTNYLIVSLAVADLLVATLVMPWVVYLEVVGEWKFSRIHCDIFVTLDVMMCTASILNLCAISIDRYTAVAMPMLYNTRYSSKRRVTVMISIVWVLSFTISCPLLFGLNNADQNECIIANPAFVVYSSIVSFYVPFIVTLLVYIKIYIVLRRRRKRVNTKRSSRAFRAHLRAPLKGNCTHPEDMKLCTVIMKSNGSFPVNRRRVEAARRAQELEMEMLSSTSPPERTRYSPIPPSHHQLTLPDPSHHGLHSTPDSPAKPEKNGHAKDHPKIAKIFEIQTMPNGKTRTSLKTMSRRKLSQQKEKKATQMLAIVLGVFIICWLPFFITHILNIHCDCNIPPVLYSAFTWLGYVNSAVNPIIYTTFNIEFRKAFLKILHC

By inhibition is commonly meant the change of the read-out against control, counted positive when it falls. Consider `Cc1ccc2c(c1)c1c(n2CC(O)c2ccc(F)cc2)CCN(C)CC1` (stereo not drawn) [Compound No. 52, 1-(4-fluorophenyl)-2-(2,3,4,5-tetrahydro-3,9-dimethylazepino[4,5-b]indol-6(1H)-yl)ethanol], for which the inhibition at 1 µM in experiment [1] turned out to be 97%; in experiment [2], 103%; in experiment [3], 20%; in experiment [4], 97%.

In the case of `Cc1ccc2c(c1)c1c(n2/C=C/c2ccccc2F)CCN(C)CC1` [Compound No. 233, (E)-6-(2-fluorostyryl)-3,9-dimethyl-1,2,3,4,5,6-hexahydroazepino[4,5-b]indole], the inhibition at 1 µM came to 97% in experiment [1], 100% in experiment [2], 73% in experiment [3] and 102% in experiment [4].

Regarding `COc1ccc(C(O)Cn2c3c(c4cc(Cl)ccc42)CCN(C)CC3)c(F)c1` (stereo not drawn) [Compound No. 49, 2-(9-chloro-2,3,4,5-tetrahydro-3-methylazepino[4,5-b]indol-6(1H)-yl)-1-(2-fluoro-4-methoxyphenyl) ethanol], the inhibition at 1 µM stood at 96% in experiment [1], 106% in experiment [2], 32% in experiment [3] and 97% in experiment [4].

Turning to `Cc1ccc2c(c1)c1c(n2CC(O)c2ccccc2F)CCN(C)CC1` (stereo not drawn) [Compound No. 41, 1-(2-fluorophenyl)-2-(2,3,4,5-tetrahydro-3,9-dimethylazepino[4,5-b]indol-6(1H)-yl)ethanol], the inhibition at 1 µM in experiment [1] was determined as 95%; in experiment [2], 104%; in experiment [3], 34%; in experiment [4] it was 99%.

In the case of `Cc1ccc2c(c1)c1c(n2/C=C/c2ccc(F)cc2)CCN(C)CC1` [Compound No. 39, 6-(4-fluorostyryl)-1,2,3,4,5,6-hexahydro-3,9-dimethylazepino[4,5-b]indole], the inhibition at 1 µM in experiment [1] amounted to 98%; in experiment [2], 105%; in experiment [3], 66%; in experiment [4] it was 98%.

Take `CN1CCc2c(n(/C=C/c3ccc(F)cc3)c3ccc(Cl)cc23)CC1` [Compound No. 234, (E)-9-chloro-6-(4-fluorostyryl)-3-methyl-1,2,3,4,5,6-hexahydroazepino[4,5-b]indole]: the inhibition at 1 µM was determined as 98% in experiment [1], 100% in experiment [2], 71% in experiment [3] and 101% in experiment [4].

On to `Cc1ccc2c(c1)c1c(n2CC(=O)N(C)C2CCCCC2)CCN(C)CC1` [Compound No. 232, N-cyclohexyl-2-(3,9-dimethyl-2,3,4,5-tetrahydroazepino[4,5-b]indol-6(1H)-yl)-N-methylacetamide], for which the inhibition at 1 µM in experiment [1] stood at 90%; in experiment [2], 39%; in experiment [3], 8%; in experiment [4], 70%.

For `Cc1ccc(C(O)Cn2c3c(c4cc(Cl)ccc42)CCN(C)CC3)cn1` (stereo not drawn) [Compound No. 7, 2-(9-chloro-2,3,4,5-tetrahydro-3-methylazepino[4,5-b]indol-6(1H)-yl)-1-(6-methylpyridin-3-yl)ethanol], the inhibition at 1 µM was found to be 84% in experiment [1], 101% in experiment [2], 15% in experiment [3] and 80% in experiment [4].

Take `Cc1ccc2c(c1)c1c(n2CC(O)c2ccc(C)nc2)CCN(C)CC1` (stereo not drawn) [Compound No. 23, 2-(2,3,4,5-tetrahydro-3,9-dimethylazepino[4,5-b]indol-6(1H)-yl)-1-(6-methylpyridin-3-yl)ethanol]: the inhibition at 1 µM came to 42% in experiment [1], 25% in experiment [2], 4% in experiment [3] and 67% in experiment [4].

Take `Cc1ccc2c(c1)c1c(n2CC(C)(O)c2ccc(Cl)cc2)CCN(C)CC1` (stereo not drawn) [Compound No. 15, 2-(4-chlorophenyl)-1-(2,3,4,5-tetrahydro-3,9-dimethylazepino[4,5-b]indol-6(1H)-yl)propan-2-ol]: the inhibition at 1 µM amounted to 93% in experiment [1], 104% in experiment [2], 45% in experiment [3] and 101% in experiment [4].

Turning to `Cc1ccc2c(c1)c1c(n2CC(O)c2ccc(Cl)cc2)CCN(C)CC1` (stereo not drawn) [Compound No. 17, 1-(4-chlorophenyl)-2-(2,3,4,5-tetrahydro-3,9-dimethylazepino[4,5-b]indol-6(1H)-yl)ethanol], the inhibition at 1 µM in experiment [1] came to 105%; in experiment [2], 99%; in experiment [3], 34%; in experiment [4] it was 102%.

Consider `CN1CCc2c(n(CC(=O)N3CCNCC3)c3ccc(Cl)cc23)CC1` [Compound No. 72, 2-(9-chloro-2,3,4,5-tetrahydro-3-methylazepino[4,5-b]indol-6(1H)-yl)-1-(piperazin-1-yl)ethanone], for which the inhibition at 1 µM in experiment [1] is -6%; in experiment [2] it was 7%; in experiment [3], -18%; in experiment [4], 23%.

As for `CN1CCc2c(n(CC(C)(O)c3ccc(Cl)cc3)c3ccc(Cl)cc23)CC1` (stereo not drawn) [Compound No. 12, 1-(9-chloro-2,3,4,5-tetrahydro-3-methylazepino[4,5-b]indol-6(1H)-yl)-2-(4-chlorophenyl)propan-2-ol], the inhibition at 1 µM in experiment [1] is 101%; in experiment [2] it was 103%; in experiment [3], 45%; in experiment [4], 100%.

`CN1CCc2c(n(CCc3ccccc3F)c3ccccc23)CC1` [Compound No. 237, 6-(2-fluorophenethyl)-3-methyl-1,2,3,4,5,6-hexahydroazepino[4,5-b]indole]: the inhibition at 1 µM in experiment [1] stood at 98%; in experiment [2], 93%; in experiment [3], 50%; in experiment [4], 99%.

Take `COc1ccc(C(O)Cn2c3c(c4cc(Cl)ccc42)CCN(C)CC3)cc1` (stereo not drawn) [Compound No. 47, 2-(9-chloro-2,3,4,5-tetrahydro-3-methylazepino[4,5-b]indol-6(1H)-yl)-1-(4-methoxyphenyl)ethanol]: the inhibition at 1 µM was 97% in experiment [1], 105% in experiment [2], 45% in experiment [3] and 99% in experiment [4].

For `C/C(=C\n1c2c(c3cc(C)ccc31)CCN(C)CC2)c1ccc(Cl)cc1Cl` [Compound No. 238, (E)-6-(2-(2,4-dichlorophenyl)prop-1-enyl)-3,9-dimethyl-1,2,3,4,5,6-hexahydroazepino[4,5-b]indole], the inhibition at 1 µM turned out to be 98% in experiment [1], 103% in experiment [2], 7% in experiment [3] and 103% in experiment [4].

On to `Cc1ccc2c(c1)c1c(n2CC(=O)N2CCOCC2)CCN(C)CC1` [Compound No. 38, 2-(2,3,4,5-tetrahydro-3,9-dimethylazepino[4,5-b]indol-6(1H)-yl)-1-morpholinoethanone], for which the inhibition at 1 µM came to 77% in experiment [1], 83% in experiment [2], 21% in experiment [3] and 96% in experiment [4].

As for `Cc1ccc2c(c1)c1c(n2/C=C/c2ccccc2)CCN(C)CC1` [Compound No. 229, (E)-3,9-dimethyl-6-styryl-1,2,3,4,5,6-hexahydroazepino[4,5-b]indole], the inhibition at 1 µM is 100% in experiment [1], 103% in experiment [2], 68% in experiment [3] and 100% in experiment [4].
